Source: patent publication US20250340574A1, “MODULATORS OF CYSTIC FIBROSIS TRANSMEMBRANE CONDUCTANCE REGULATOR” (Vertex Pharmaceuticals Incorporated, priority 2022, published 2025)

Target: T1, CFTR (F508del/MF-HBE cells) (Homo sapiens, UniProt P13569, DEL508-508)
T1 construct: human bronchial epithelial (HBE) cells derived from CF subjects heterozygous for F508del and a minimal function CFTR mutation (F508del/MF-HBE); endogenous in cells; host or cells: Primary human bronchial epithelial cells from CF subjects (F508del/MF genotype), differentiated at an air-liquid interface
T1 sequence (P13569 with tags, fused parts or gaps DEL508-508): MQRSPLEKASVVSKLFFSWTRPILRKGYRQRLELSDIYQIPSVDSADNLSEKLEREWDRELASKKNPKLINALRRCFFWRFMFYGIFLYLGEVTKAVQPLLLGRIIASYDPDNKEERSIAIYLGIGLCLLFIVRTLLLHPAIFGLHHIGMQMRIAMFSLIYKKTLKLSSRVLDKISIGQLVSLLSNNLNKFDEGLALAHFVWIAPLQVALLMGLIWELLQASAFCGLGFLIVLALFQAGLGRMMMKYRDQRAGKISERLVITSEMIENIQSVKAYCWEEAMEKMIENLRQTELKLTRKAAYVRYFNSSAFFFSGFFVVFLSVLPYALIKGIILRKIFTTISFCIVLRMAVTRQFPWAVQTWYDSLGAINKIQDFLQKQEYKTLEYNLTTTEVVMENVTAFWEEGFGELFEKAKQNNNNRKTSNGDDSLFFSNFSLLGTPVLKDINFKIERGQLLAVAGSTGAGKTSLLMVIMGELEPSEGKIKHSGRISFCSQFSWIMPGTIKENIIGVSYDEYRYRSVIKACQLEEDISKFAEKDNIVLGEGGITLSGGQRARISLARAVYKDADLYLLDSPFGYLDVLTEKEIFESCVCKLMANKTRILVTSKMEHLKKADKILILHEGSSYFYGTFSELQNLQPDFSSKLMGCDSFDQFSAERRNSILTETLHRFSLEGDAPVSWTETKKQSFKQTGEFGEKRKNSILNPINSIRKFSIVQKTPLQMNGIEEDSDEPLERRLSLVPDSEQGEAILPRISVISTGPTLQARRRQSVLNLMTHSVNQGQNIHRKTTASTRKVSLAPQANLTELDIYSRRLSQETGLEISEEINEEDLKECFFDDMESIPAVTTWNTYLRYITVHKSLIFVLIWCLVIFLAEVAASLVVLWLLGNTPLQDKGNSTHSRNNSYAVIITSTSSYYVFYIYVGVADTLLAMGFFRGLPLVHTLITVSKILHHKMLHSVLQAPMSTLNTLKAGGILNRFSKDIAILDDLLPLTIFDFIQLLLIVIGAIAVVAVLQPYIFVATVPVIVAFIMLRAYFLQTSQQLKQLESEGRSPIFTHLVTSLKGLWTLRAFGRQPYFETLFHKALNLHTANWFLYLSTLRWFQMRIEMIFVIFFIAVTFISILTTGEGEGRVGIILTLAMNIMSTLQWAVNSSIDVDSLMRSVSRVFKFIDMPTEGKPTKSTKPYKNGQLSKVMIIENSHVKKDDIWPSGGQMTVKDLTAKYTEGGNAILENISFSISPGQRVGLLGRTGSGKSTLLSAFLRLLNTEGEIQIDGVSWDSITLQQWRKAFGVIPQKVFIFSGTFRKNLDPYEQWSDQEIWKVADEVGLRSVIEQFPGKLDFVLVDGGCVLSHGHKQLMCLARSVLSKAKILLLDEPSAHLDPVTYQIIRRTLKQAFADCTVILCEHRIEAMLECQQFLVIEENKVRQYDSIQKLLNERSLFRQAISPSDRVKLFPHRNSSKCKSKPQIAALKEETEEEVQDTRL
Experiment: Ussing chamber assay of CFTR-mediated short-circuit currents, Assay D (single concentration of 1 μM)
Type: cell-based
Conditions: with 44 nM potentiator and 18 μM Tezacaftor, 18-24 hours, 20% human serum
Method in brief: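 Short-circuit current was recorded at 37 °C under voltage clamp (0 mV) with amiloride 30 μM apically, forskolin 20 μM activation, then BPO/GlyH-101/inh-172 (20 μM each) to isolate CFTR current. Before recording, corrector exposure lasted 18–24 h with 18 μM tezacaftor, 20% human serum, and 33 nM (dose–response) or 44 nM (1 μM fixed) potentiator, maintained throughout.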

SMILES	D activity at 1 μM (%)
Cc1cccc(C)c1-c1cc2nc(n1)NS(=O)(=O)c1cccc(c1)C(=O)N(Cc1cnc3cc(C4CC4)n(C)c3n1)[C@H](CC(C)(C)C)CO2 [Compound I-150]	+++ (+++ is >60%)
Cc1cccc(C)c1-c1cc2nc(n1)NS(=O)(=O)c1cccc(c1)C(=O)N(Cc1cnc3oc(C(C)C)cc3n1)[C@H](C=C1CCC1)CO2 [Compound I-153]	+++ (+++ is >60%)
Cc1cccc(C)c1-c1cc2nc(n1)NS(=O)(=O)c1cccc(c1)C(=O)N(Cc1cnc3oc(C4CC4)cc3n1)[C@H](CC(C)C)CO2 [Compound I-156]	+++ (+++ is >60%)
Cc1cccc(C)c1-c1cc2nc(n1)NS(=O)(=O)c1cccc(c1)C(=O)N(Cc1cnc3cc(C(C)C)n(CCO)c3n1)[C@H](CC(C)(C)C)CO2 [Compound I-160, (11R)-6-(2,6-Dimethylphenyl)-11-(2,2-dimethylpropyl)-12-[[5-(2-hydroxyethyl)-6-isopropyl-pyrrolo[2,3-b]pyrazin-3-yl]methyl]-2,2-dioxo-9-oxa-2λ^6-thia-3,5,12,19-tetrazatricyclo[12.3.1.14,8]nonadeca-1(18),4(19),5,7,14,16-hexaen-13-one]	+++ (+++ is >60%)
Cc1cccc(C)c1-c1cc2nc(n1)NS(=O)(=O)c1cccc(c1)C(=O)N(Cc1cnc3oc(C(C)C)c(Cl)c3n1)[C@H](COC(C)C)CO2 [Compound I-162]	+++ (+++ is >60%)
Cc1cccc(C)c1-c1cc2nc(n1)NS(=O)(=O)c1cccc(c1)C(=O)N(Cc1cnc3oc(C4CC4)cc3n1)[C@@H](C1CC(C)(C)C1)CO2 [Compound I-163]	+++ (+++ is >60%)
Cc1cccc(C)c1-c1cc2nc(n1)NS(=O)(=O)c1cccc(c1)C(=O)N(Cc1cnc3nn(C(C)C)cc3n1)[C@H](CC(C)(C)C)CO2 [Compound I-169, (11R)-6-(2,6-Dimethylphenyl)-11-(2,2-dimethylpropyl)-12-[(2-isopropylpyrazolo[3,4-b]pyrazin-5-yl)methyl]-2,2-dioxo-9-oxa-2λ^6-thia-3,5,12,19-tetrazatricyclo[12.3.1.14,8]nonadeca-1(18),4(19),5,7,14,16-hexaen-13-one]	+++ (+++ is >60%)
Cc1cccc(C)c1-c1cc2nc(n1)NS(=O)(=O)c1cccc(c1)C(=O)N(Cc1cnc3oc(C(C)C)cc3n1)[C@H](CC(C)(C)C)CC2 [Compound I-173]	+++ (+++ is >60%)
Cc1cccc(C)c1-c1nc2nc(c1C)OC[C@@H](COC(C)C)N(Cc1cnc3oc(C4CC4)cc3n1)C(=O)c1cccc(c1)S(=O)(=O)N2 [Compound I-181]	+++ (+++ is >60%)
Cc1cccc(C)c1-c1nc2nc(c1C)OC[C@@H](CCC(C)(C)C)N(Cc1cnc3cc(C4CC4)n(C)c3n1)C(=O)c1cccc(c1)S(=O)(=O)N2 [Compound I-183]	+++ (+++ is >60%)
Cc1cccc(C)c1-c1nc2nc(c1C)OC[C@@H](CCC(C)(C)C)N(Cc1cnc3oc(C4CC4)cc3n1)C(=O)c1cccc(c1)S(=O)(=O)N2 [Compound I-184]	+++ (+++ is >60%)
Cc1cccc(C)c1-c1cc2nc(n1)NS(=O)(=O)c1cccc(c1)C(=O)N(Cc1cnc3oc(C4(C)CC4)cc3n1)[C@H](COC(C)C)CO2 [Compound I-186]	+++ (+++ is >60%)
Cc1cccc(C)c1-c1nc2nc(c1C)OC[C@@H](COC(C)C)N(Cc1cnc3cc(C(C)C)n(C)c3n1)C(=O)c1cccc(c1)S(=O)(=O)N2 [Compound I-189]	+++ (+++ is >60%)
Cc1cccc(C)c1-c1cc2nc(n1)NS(=O)(=O)c1cccc(c1)C(=O)N(Cc1cnc3cc(C(C)C)n(C)c3n1)[C@H](Cc1ccccc1)CO2 [Compound I-190]	+++ (+++ is >60%)
Cc1cccc(C)c1-c1nc2nc(c1C)OC[C@@H](C[C@H]1CCCCO1)N(Cc1cnc3oc(C4CC4)cc3n1)C(=O)c1cccc(c1)S(=O)(=O)N2 [Compound I-192]	+++ (+++ is >60%)
Cc1cccc(C)c1-c1cc2nc(n1)NS(=O)(=O)c1cccc(c1)C(=O)N(Cc1ncc3oc(C4CC4)cc3n1)[C@H](COC(C)C)CO2 [Compound I-200]	+++ (+++ is >60%)
Cc1cccc(C)c1-c1cc2nc(n1)NS(=O)(=O)c1cccc(c1F)C(=O)N(Cc1cnc3cc(C(C)C)n(CCO)c3n1)[C@H](CC1(C)CC1)CO2 [Compound I-215]	+++ (+++ is >60%)
Cc1cccc(C)c1-c1nc2nc(c1C)OC[C@@H](COC(C)C)N(Cc1cnc3oc(C(C)(C)C)cc3n1)C(=O)c1cccc(c1)S(=O)(=O)N2 [Compound I-216]	+++ (+++ is >60%)
Cc1cccc(C)c1-c1cc2nc(n1)NS(=O)(=O)c1cccc(c1)C(=O)N(Cc1cnc3oc(C(C)(C)C)cc3n1)[C@H](CC1CC1)CO2 [Compound I-219]	+++ (+++ is >60%)
Cc1cccc(C)c1-c1nc2nc(c1C)OC[C@@H](CC1(C)CC1)N(Cc1cnc3oc(C(C)(C)C)cc3n1)C(=O)c1cccc(c1)S(=O)(=O)N2 [Compound I-221]	+++ (+++ is >60%)

SMILES	D activity at 1 μM (%)
Cc1cccc(C)c1-c1nc2nc(c1C)OC[C@@H](CC13CC(C1)C3)N(Cc1cnc3oc(C(C)(C)C)cc3n1)C(=O)c1cccc(c1)S(=O)(=O)N2 [Compound I-223]	+++ (+++ is >60%)
Cc1cccc(CC2CCCCC2)c1-c1nc2nc(c1C)OC[C@@H](CC(C)(C)C)N(Cc1cnc3oc(C4CC4)cc3n1)C(=O)c1cccc(c1)S(=O)(=O)N2 [Compound I-224]	+++ (+++ is >60%)
Cc1cccc(C)c1-c1cc2nc(n1)NS(=O)(=O)c1cccc(c1)C(=O)N(Cc1ccc3oc(C4(C)CC4)cc3n1)[C@H](CC1(C)CC1)CO2 [Compound I-226]	+++ (+++ is >60%)
Cc1cccc(C)c1-c1nc2nc(c1C)OC[C@@H](CC(C)(C)C)N(Cc1cnc3cc(C4(C)CC4)n(C)c3n1)C(=O)c1cccc(c1)S(=O)(=O)N2 [Compound I-229]	+++ (+++ is >60%)
Cc1cccc(C)c1-c1nc2nc(c1C)OC[C@@H](CC1(C)CC1)N(Cc1cnc3cc(C4(C)CC4)n(C)c3n1)C(=O)c1cccc(c1)S(=O)(=O)N2 [Compound I-230]	+++ (+++ is >60%)
Cc1cccc(C)c1-c1nc2nc(c1C)OC[C@@H](CC1(C)CC1)N(Cc1cnc3oc(C4(C)CC4)cc3n1)C(=O)c1cccc(c1)S(=O)(=O)N2 [Compound I-232]	+++ (+++ is >60%)
Cc1cccc(C)c1-c1cc2nc(n1)NS(=O)(=O)c1cccc(c1)C(=O)N(Cc1nc3cc(C4(C)CC4)oc3cc1F)[C@H](CC13CC(C1)C3)CO2 [Compound I-233]	+++ (+++ is >60%)
Cc1cccc(C)c1-c1nc2nc(c1C)OC[C@@H](CC(C)(C)C)N(Cc1ccc3oc(C4(C)CC4)cc3n1)C(=O)c1cccc(c1)S(=O)(=O)N2 [Compound I-235]	+++ (+++ is >60%)
Cc1cccc(C)c1-c1nc2nc(c1C)OC[C@@H](CC(C)(C)C)N(Cc1nc3cc(C4(C)CC4)oc3cc1F)C(=O)c1cccc(c1)S(=O)(=O)N2 [Compound I-236]	+++ (+++ is >60%)
Cc1cccc(C)c1-c1cc2nc(n1)NS(=O)(=O)c1cccc(c1)C(=O)N(Cc1cnc3oc(C(C)C)c(N)c3n1)[C@H](CC1(C)CC1)CO2 [Compound I-237, (11R)-12-[(7-Amino-6-isopropyl-furo[2,3-b]pyrazin-2-yl)methyl]-6-(2,6-dimethylphenyl)-11-[(1-methylcyclopropyl)methyl]-2,2-dioxo-9-oxa-2λ^6-thia-3,5,12,19-tetrazatricyclo[12.3.1.14,8]nonadeca-1(18),4(19),5,7,14,16-hexaen-13-one]	+++ (+++ is >60%)
Cc1cccc(C)c1-c1cc2nc(n1)NS(=O)(=O)c1cccc(c1)C(=O)N(Cc1ccc3oc(C4(C)CC4)cc3n1)[C@H](COC(C)C)CO2 [Compound I-241]	+++ (+++ is >60%)
Cc1cccc(C)c1-c1cc2nc(n1)NS(=O)(=O)c1cccc(c1)C(=O)N(Cc1nc3cc(C(C)(C)C)oc3cc1F)[C@H](COC(C)C)CO2 [Compound I-242]	+++ (+++ is >60%)
Cc1cccc(C)c1-c1cc2nc(n1)NS(=O)(=O)c1cccc(c1)C(=O)N(Cc1nc3cc(C(C)(C)C)oc3cc1F)[C@H](CC1(C)CC1)CO2 [Compound I-243]	+++ (+++ is >60%)
Cc1cccc(C)c1-c1cc2nc(n1)NS(=O)(=O)c1cccc(c1)C(=O)N(Cc1nc3cc(C(C)(C)C)oc3cc1F)[C@H](CC13CC(C1)C3)CO2 [Compound I-244]	+++ (+++ is >60%)
Cc1cccc(CC(C)C)c1-c1nc2nc(c1C)OC[C@@H](CC13CC(C1)C3)N(Cc1cnc3oc(C(C)(C)C)cc3n1)C(=O)c1cccc(c1)S(=O)(=O)N2 [Compound I-248]	+++ (+++ is >60%)
Cc1cccc(C)c1-c1cc2nc(n1)NS(=O)(=O)c1cccc(c1)C(=O)N(Cc1ncc3oc(C(C)(C)C)cc3n1)[C@H](CC(C)(C)C)CO2 [Compound I-250]	+++ (+++ is >60%)
Cc1cccc(C)c1-c1cc2nc(n1)NS(=O)(=O)c1cccc(c1)C(=O)N(Cc1ncc3oc(C(C)(C)C)cc3n1)[C@H](CC1(C)CC1)CO2 [Compound I-252]	+++ (+++ is >60%)
Cc1cccc(C)c1-c1cc2nc(n1)NS(=O)(=O)c1cccc(c1)C(=O)N(Cc1nc3cc(C4(C)CC4)oc3cc1F)[C@H](COC(C)C)CO2 [Compound I-253]	+++ (+++ is >60%)
Cc1cccc(C)c1-c1cc2nc(n1)NS(=O)(=O)c1cccc(c1)C(=O)N(Cc1cn3cccc(C(C)C)c3n1)[C@H](CC(C)(C)C)CO2 [III-5, (11R)-6-(2,6-dimethylphenyl)-11-(2,2-dimethylpropyl)-12-[(8-isopropylimidazo[1,2-a]pyridin-2-yl)methyl]-2,2-dioxo-9-oxa-2λ^6-thia-3,5,12,19-tetrazatricyclo[12.3.1.14,8]nonadeca-1(18),4(19),5,7,14,16-hexaen-13-one]	+++ (+++ is >60%)
